Test results published in PMC12016938, “A small molecule PKCε inhibitor reduces hyperalgesia induced by paclitaxel or opioid withdrawal” (JCI Insight, 2025).
“And” between values parts separate entries of the source, which are not always exact repeats. Equal entries are not always repeated.

Test system: self-administration (addictive potential)
Assay: I.v. self-administration of CP612, between-session progressive ratio and demand curve
Description: We tested the addictive potential of CP612 by examining the extent to which rats are willing to work to obtain CP612. Rats were initially trained to self-administer either saline, morphine (500 μg/kg/i.v. infusion), or 1 of 3 different doses of CP612 (75, 150, or 300 μg/kg/i.v. infusion) for 4 days at fixed ratio 1 (FR1, where 1 nose poke delivers 1 infusion).
During the second phase, the ratio to obtain an infusion increased geometrically every other day (FR1, FR3, FR6, FR12, FR24, FR48, and FR96).
Data (number of self-infusions) were also fitted in an economic-demand curve, which provides an estimate of the motivation to obtain drugs and their addictive potential ([20]). We measured elasticity (α), which is the relative change in consumption as a function of price (i.e., ratio of nose pokes required to obtain an infusion). Behavior is considered “inelastic” when consumption is insensitive to price and “elastic” when consumption is sensitive to price. We also measured Pmax, which is the price at which intake switches from inelastic to elastic. […] (Figure 8B).
Rats not immediately anesthetized were eliminated from the study.
Following this initial acquisition phase at FR1, the ratio to obtain the drug was increased geometrically every other day: FR3 (3 nose pokes are required to obtain 1 infusion of morphine), FR6, FR12, FR24, FR48, and FR96. This allows for analysis of drug consumption as a function of “price” using demand curves for behavioral economics, which can estimate the motivation to obtain drugs and their “addictive potential” ([20]). For this, data from each rat were fitted to the equation log Q = log Q0 + k (e ^–α(Q0 ^C) – 1), where Q represents consumption (number of self-infusions), and Q0 represents the level of consumption at the lowest price. C represents price for the drug (i.e., the ratio), and k is set to a constant accounting for the estimated range of consumption in logarithmic units (k = 4 in these studies). The symbol α is the relative change in consumption across changes in price (ratio). Behavior is considered “inelastic” when consumption is insensitive to price (i.e., the curve is flat, and consumption is maintained despite increases in price), and it switches to “elastic” when consumption is sensitive to price (i.e., when the curve is steep and consumption declines with increases in price). […] We also compared groups for their average intake in the consumption-price curves by measuring α (elasticity) and Pmax.

SMILES: N[C@H](CNC(=O)C1(c2ccc(Cl)cc2)CCCC1)c1ccc(C(=O)Nc2ccncc2)cc1 [CP612]
- AVG Latency (FR1_D1 to D4) (CP612-High, individual rat): 0.277 and 0.6 and 2.3 and 1.8 and 0.8 and 0.9 and 1.0
- AVG Latency (FR1_Last 2 FR1 days) (CP612-High, individual rat): 0.051 and 0.179 and 0.9 and 1.8 and 0.219 and 0.171
- AVG Latency (FR1_Last 4 FR1 days) (CP612-High, individual rat): 0.076 and 0.283 and 1.5 and 1.8 and 0.8 and 0.9 and 0.53
- AVG Latency (FR3) (CP612-High, individual rat): 1.2 and 0.116 and 2.8 and 0.5 and 0.236 and 1.4 and 0.326
- AVG Latency (FR6) (CP612-High, individual rat): 0.64 and 0.4 and 0.643 and 1.9 and 0.8 and 2.5 and 0.6
- AVG Latency (FR12) (CP612-High, individual rat): 14.4 and 2.6 and 0.5 and 4.0 and 0.6 and 2.1
- AVG Latency (FR24) (CP612-High, individual rat): 1.9 and 0.9 and 0.3 and 0.6 and 2.3 and 1.3
- AVG Latency (FR48) (CP612-High, individual rat): 14.3 and 0.9 and 1.1 and 1.9 and 18.8 and 1.2
- AVG Latency (FR96) (CP612-High, individual rat): 13.6 and 1.5 and 0.9 and 12.9 and 2.4 and 0.8
- D1 Latency (FR1) (CP612-High, individual rat): 0.857 and 1.7 and 5.4 and 2.9 and 0.6 and 0.743
- D1 Latency (FR3) (CP612-High, individual rat): 2.0 and 0.108 and 0.043 and 0.6 and 0.3 and 0.19 and 0.232
- D1 Latency (FR6) (CP612-High, individual rat): 0.65 and 0.1 and 0.9 and 0.7 and 0.8 and 3.8 and 0.275
- D1 Latency (FR12) (CP612-High, individual rat): 27.0 and 1.2 and 0.527 and 5.7 and 0.283 and 3.2 and 2.2
- D1 Latency (FR24) (CP612-High, individual rat): 1.3 and 0.7 and 0.338 and 0.9 and 1.7 and 1.4
- D1 Latency (FR48) (CP612-High, individual rat): 16.8 and 0.4 and 0.255 and 0.142 and 1.1 and 36.4 and 0.743
- D1 Latency (FR96) (CP612-High, individual rat): 4.4 and 1.8 and 0.643 and 3.1 and 3.3 and 0.647 and 0.7
- D2 Latency (FR1) (CP612-High, individual rat): 0.077 and 0.4 and 2.0 and 0.6 and 2.2 and 0.9
- D2 Latency (FR3) (CP612-High, individual rat): 0.5 and 0.125 and 5.6 and 0.4 and 0.17 and 2.6
- D2 Latency (FR6) (CP612-High, individual rat): 0.6 and 0.7 and 0.4 and 3.1 and 0.8 and 1.2 and 0.9
- D2 Latency (FR12) (CP612-High, individual rat): 1.8 and 4.1 and 0.5 and 2.3 and 0.9 and 1.0 and 2.9
- D2 Latency (FR24) (CP612-High, individual rat): 2.5 and 1.2 and 0.257 and 0.283 and 0.355 and 2.9
- D2 Latency (FR48) (CP612-High, individual rat): 11.8 and 1.4 and 1.9 and 3.7 and 1.1 and 1.2 and 1.7
- D2 Latency (FR96) (CP612-High, individual rat): 22.7 and 1.2 and 1.1 and 1.6 and 0.9 and 2.4
- D3 Latency (FR1) (CP612-High, individual rat): 0.125 and 0.22 and 1.4 and 2.0 and 0.063 and 1.3 and 0.185
- D4 Latency (FR1) (CP612-High, individual rat): 0.05 and 0.138 and 0.457 and 1.7 and 0.375 and 0.547 and 0.158
- last Latency (FR1) (CP612-High, individual rat): 0.052 and 0.138 and 0.457 and 1.7 and 0.375 and 0.547 and 0.158
- last-1 Latency (FR1) (CP612-High, individual rat): 0.05 and 0.22 and 1.4 and 2.0 and 0.063 and 1.3 and 0.185
- last-2 Latency (FR1) (CP612-High, individual rat): 0.125 and 0.4 and 2.0 and 0.6 and 2.2 and 0.9
- last-3 Latency (FR1) (CP612-High, individual rat): 0.077 and 0.4 and 2.0 and 2.9 and 0.6 and 0.9
- AVG Latency (FR1_D1 to D4) (CP612-Low, individual rats): 4.9 and 0.7 and 2.4 and 1.7 and 1.1
- AVG Latency (FR1_Last 2 FR1 days) (CP612-Low, individual rats): 0.358 and 0.6 and 0.284 and 0.9 and 0.159 and 1.0 and 0.2 and 1.2
- AVG Latency (FR1_Last 4 FR1 days) (CP612-Low, individual rats): 1.9 and 0.8 and 0.222 and 0.443 and 1.2 and 0.5 and 0.6
- AVG Latency (FR3) (CP612-Low, individual rats): 0.8 and 1.6 and 4.5 and 0.452 and 0.377 and 4.0 and 0.095 and 0.182
- AVG Latency (FR6) (CP612-Low, individual rats): 1.5 and 1.4 and 2.2 and 0.323 and 0.9 and 0.163 and 0.233
- AVG Latency (FR12) (CP612-Low, individual rats): 1.6 and 0.566 and 0.8 and 0.4 and 2.4 and 1.9 and 1.0
- AVG Latency (FR24) (CP612-Low, individual rats): 3.5 and 0.6 and 1.0 and 0.8 and 0.426 and 5.1 and 1.2 and 0.7
- AVG Latency (FR48) (CP612-Low, individual rats): 0.7 and 2.3 and 2.2 and 0.372 and 0.844 and 2.6 and 0.335 and 1.6
- AVG Latency (FR96) (CP612-Low, individual rats): 1.1 and 0.176 and 4.5 and 0.551 and 1.2 and 0.0585 and 2.6 and 0.259
- D1 Latency (FR1) (CP612-Low, individual rats): 12.2 and 0.368 and 2.4 and 7.3 and 1.0 and 3.8 and 1.9 and 0.7
- D1 Latency (FR3) (CP612-Low, individual rats): 0.425 and 0.5 and 1.0 and 0.458 and 0.7 and 4.6 and 0.155 and 0.173
- D1 Latency (FR6) (CP612-Low, individual rats): 1.3 and 2.2 and 0.473 and 0.533 and 0.9 and 0.183 and 0.32
- D1 Latency (FR12) (CP612-Low, individual rats): 0.9 and 2.3 and 0.7 and 1.3 and 0.66 and 1.0 and 0.6
- D1 Latency (FR24) (CP612-Low, individual rats): 6.2 and 0.9 and 1.5 and 0.7 and 8.8 and 2.1 and 0.19
- D1 Latency (FR48) (CP612-Low, individual rats): 1.1 and 1.6 and 3.8 and 0.332 and 0.655 and 0.6 and 0.368 and 0.073
- D1 Latency (FR96) (CP612-Low, individual rats): 0.8 and 0.108 and 8.1 and 0.57 and 0.062 and 1.6 and 0.143
- D2 Latency (FR1) (CP612-Low, individual rats): 4.7 and 1.8 and 0.14 and 0.425 and 1.0 and 0.13 and 1.5 and 0.027
- D2 Latency (FR3) (CP612-Low, individual rats): 1.1 and 2.8 and 7.9 and 0.445 and 0.067 and 3.5 and 0.035 and 0.2
- D2 Latency (FR6) (CP612-Low, individual rats): 1.7 and 0.562 and 4.0 and 0.658 and 0.112 and 0.9 and 0.143 and 0.147
- D2 Latency (FR12) (CP612-Low, individual rats): 2.2 and 0.8 and 0.4 and 0.355 and 0.1 and 3.4 and 2.9 and 1.5
- D2 Latency (FR24) (CP612-Low, individual rats): 0.76 and 0.282 and 0.4 and 0.9 and 0.148 and 1.5 and 0.188 and 1.2
- D2 Latency (FR48) (CP612-Low, individual rats): 0.337 and 3.0 and 0.6 and 0.4 and 1.0 and 4.6 and 0.3 and 3.2
- D2 Latency (FR96) (CP612-Low, individual rats): 1.5 and 0.245 and 0.8 and 0.533 and 1.6 and 0.055 and 3.5 and 0.375
- D3 Latency (FR1) (CP612-Low, individual rats): 2.1 and 0.145 and 0.175 and 0.9 and 0.5 and 2.5 and 0.8 and 0.017
- D4 Latency (FR1) (CP612-Low, individual rats): 0.433 and 0.6 and 0.143 and 1.0 and 0.3 and 0.258 and 0.24 and 2.0
- last Latency (FR1) (CP612-Low, individual rats): 0.283 and 0.653 and 0.332 and 0.9 and 0.03 and 1.7 and 0.163 and 0.342
- last-1 Latency (FR1) (CP612-Low, individual rats): 0.433 and 0.6 and 0.237 and 1.0 and 0.3 and 0.258 and 0.24 and 2.0
- last-2 Latency (FR1) (CP612-Low, individual rats): 2.1 and 0.145 and 0.143 and 0.9 and 0.5 and 2.5 and 0.8 and 0.017
- last-3 Latency (FR1) (CP612-Low, individual rats): 4.7 and 1.8 and 0.175 and 0.425 and 1.0 and 0.13 and 0.8 and 0.017
- AVG Latency (FR1_D1 to D4) (CP612-Mid, individual rat): 1.3 and 0.461 and 0.5 and 1.6
- AVG Latency (FR1_Last 2 FR1 days) (CP612-Mid, individual rat): 0.475 and 0.9 and 0.261 and 0.6 and 3.4
- AVG Latency (FR1_Last 4 FR1 days) (CP612-Mid, individual rat): 0.356 and 0.538 and 0.317 and 0.363 and 1.9
- AVG Latency (FR3) (CP612-Mid, individual rat): 0.8 and 0.466 and 1.2 and 0.0825
- AVG Latency (FR6) (CP612-Mid, individual rat): 0.633 and 1.0 and 0.8 and 3.0 and 4.9
